The test system of this series is subjects with idiopathic pulmonary fibrosis (IPF). The series is described as follows: Phase II randomized, double-blind, placebo-controlled IPF clinical study: monitoring of adverse events (SAEs, TEAEs). The series is classed as in vivo, human. The following applies: for Subjects with Serious TEAE / Subjects with TEAE leading to treatment discontinuation (LD): 100 mg orally once daily, 26 weeks. From the text:
The study of the current example was a randomized, double-blind, parallel group, placebo-controlled, multicenter, Phase II study to evaluate the efficacy, safety and tolerability of Compound 1 in subjects with idiopathic pulmonary fibrosis (IPF). The primary objective of this study was to evaluate the efficacy of Compound 1 treatment in subjects with IPF on pulmonary function as evaluated by FVC compared to placebo over 26 weeks.
The study provided for 2 types of interventions: • Drug: Compound 1—100 mg administered orally once daily as 2 capsules of 50 mg with or without food • Drug: Compound 1 placebo—administered orally once daily as 2 capsules with or without food
Study participants were randomized over 2 study arms: • 1. Experimental: Compound 1: Compound 1 100 mg, for 26 weeks • 2. Placebo Comparator: Placebo: Compound 1 placebo for 26 weeks
To be eligible, the subjects met the following criteria: • Males or females of non-child-bearing potential, aged ≥40 years. • A diagnosis of IPF within 5 years prior to the screening visit as per American Thoracic Society (ATS)/European Respiratory Society (ERS)/Japanese Respiratory Society (JRS)/Latin American Thoracic Association (ALAT) guidelines. • Meeting all of the following criteria at screening and during the screening period: • FVC≥50% predicted of normal • Disease progression in the last 9 months prior to the screening period and at screening, defined as at least one prescreening FVC value and screening value with a decline of FVC (% predicted or mL), at the investigator's discretion • Diffusing capacity for the lungs for carbon monoxide (DLCO)≥30% predicted of normal (corrected for hemoglobin) • Ratio of forced expiratory volume in one second (FEV1) to FVC≥0.70 • In a stable condition and suitable for study participation based on the results of a medical history, physical examination, vital signs, 12-lead ECG, and laboratory evaluation. Stable condition is based on the clinical judgment of the investigator, co-morbidities should be treated according to the local applicable guidelines. Concomitant medication for comorbidities should be stabilized from 4 weeks before screening and during the screening period (stable defined as no change of dose or regimen). • Estimated minimum life expectancy of 12 months for non-IPF related disease in the opinion of the investigator. • Male subjects with female partners of child bearing potential are willing to comply with the contraceptive methods described in the respective protocol prior to the first dose of the IMP, during the clinical study, and for at least 12 weeks after the last dose of the IMP. • Able to walk at least 150 meters during the 6MWT at screening; without having a contraindication to perform the 6MWT. • Able to understand the importance of adherence, and willing to comply to study treatment, study procedures and requirements as per study protocol, including the concomitant medication restrictions. […]

[1] abbreviates: Summary All (N = 68, both arms).
[2] abbreviates: background therapy Nintedanib (N = 24, both arms).
Setting [3] is: background therapy None (N = 25, both arms).
[4] abbreviates: background therapy Pirfenidone (N = 19, both arms).

As to `O=c1nc(OC[C@@H]2COCCO2)cc2n1CCc1cc(C#CC3CC3)ccc1-2` [GLPG1205, 9-Cyclopropylethynyl-2-((S)-1-[1,4]dioxan-2-ylmethoxy)-6,7-dihydro-pyrimido[6,1-a]iso quinolin-4-one], the “Subjects with Serious TEAE” value by setting is: under setting [1], 9 n; under setting [2], 7 n; under setting [3], 2 n; under setting [4], 0 n. Moreover, the “Subjects with TEAE leading to treatment discontinuation (LD)” value is, setting by setting: under setting [1], 10 n; under setting [2], 6 n; under setting [3], 2 n; under setting [4], 2 n. The “serious adverse events (SAEs) and/or treatment emergent adverse events (TEAEs)” value (administered in combination with or alongside nintedanib) is listed as “increased”.

The values are drawn from patent US20230405007A1, “COMPOUND FOR USE IN AND METHODS OF TREATMENT OF FIBROTIC DISEASES” (Galapagos NV, priority 2020, published 2023).
